Patent US20100267561A1, “HERBICIDAL PYRIDAZINONE DERIVATIVES” (priority 2007, published 2010)

What was measured:
Format in all cases: in vivo
[1] = test system: annual bluegrass (Poa annua); test: Test E pre-/postemergence plant response; conditions: scale 0 to 100
Text: (§1) Seeds of plant species selected from bermudagrass (Cynodon dactylon), Surinam grass (Brachiaria decumbens), large crabgrass (Digitaria sanguinalis), green foxtail (Setaria viridis), goosegrass (Eleusine indica), johnsongrass (Sorghum halepense), kochia (Kochia scoparia), pitted morningglory (Ipomoea lacunosa), purple nutsedge (Cyperus rotundus), common ragweed (Ambrosia elation), black mustard (Brassica nigra), guineagrass (Panicum maximum), dallisgrass (Paspalum dilatatum), barnyardgrass (Echinochloa crus-galli), southern (S.) sandbur (Cenchrus echinatus), common sowthistle (Sonchus oleraceous), prickly sida (Sida spinosa), Italian ryegrass (Lolium multiflorum), common purslane (Portulaca oleracea), broadleaf signalgrass (Brachiaria platyphylla), common groundsel (Senecio vulgaris), common chickweed (Stellaria media), Virginia (V.) dayflower (Commelina virginica), tropical (T.) spiderwort (Commelina benghalensis), annual bluegrass (Poa annua), naked crabgrass (Digitaria nuda), itchgrass (Rottboellia cochinchinensis), quackgrass (Elytrigia repens), Canada horseweed (Conyza canadensis), field bindweed (Convolvulus arvensis), spanishneedles (Bidens bipinnata), common mallow (Malva sylvestris) and Russian thistle (Salsola kali) were planted and treated preemergence with test chemicals formulated in a non-phytotoxic solvent mixture which included a surfactant. At the same time, plants selected from these weed species were treated with postemergence applications of some of the test chemicals formulated in the same manner. Plants ranged in height from 2 to 18 cm (1- to 4-leaf stage) for postemergence treatments.
(§2) Treated plants and controls were maintained in a greenhouse for 14 to 21 days, after which time all species were compared to controls and visually evaluated. Plant response ratings, summarized in Table E, are based on a scale of 0 to 100 where 0 is no effect and 100 is complete control. A dash (-) response means no test result.

[2] = test system: black mustard (Brassica nigra); test: Test E pre-/postemergence plant response; conditions: scale 0 to 100
Text: as §1, §2

[3] = test system: common groundsel (Senecio vulgaris); test: Test E pre-/postemergence plant response; conditions: scale 0 to 100
Text: as §1, §2

[4] = test system: purple nutsedge (Cyperus rotundus); test: Test E pre-/postemergence plant response; conditions: scale 0 to 100
Text: as §1, §2

[5] = test system: naked crabgrass (Digitaria nuda); test: Test E pre-/postemergence plant response; conditions: scale 0 to 100
Text: as §1, §2

[6] = test system: goosegrass (Eleusine indica); test: Test E pre-/postemergence plant response; conditions: scale 0 to 100
Text: as §1, §2

[7] = test system: bermudagrass (Cynodon dactylon); test: Test E pre-/postemergence plant response; conditions: scale 0 to 100
Text: as §1, §2

[8] = test system: southern (S.) sandbur (Cenchrus echinatus); test: Test E pre-/postemergence plant response; conditions: scale 0 to 100
Text: as §1, §2

[9] = test system: common purslane (Portulaca oleracea); test: Test E pre-/postemergence plant response; conditions: scale 0 to 100
Text: as §1, §2

[10] = test system: itchgrass (Rottboellia cochinchinensis); test: Test E pre-/postemergence plant response; conditions: scale 0 to 100
Text: as §1, §2

[11] = test system: spring wheat (Triticum aestivum); test: Test C pre-/postemergence plant response
How it was run: (§3)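 Test chemicals in a non-phytotoxic solvent with surfactant were applied preemergence, and some were also applied postemergence to plants 2–18 cm tall (1- to 4-leaf stage). Visual ratings against controls were made after 15–25 days in a controlled environment, on a 0–100 scale where 100 means complete control.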

[12] = test system: pigweed (Amaranthus retroflexus); test: Test C pre-/postemergence plant response
How it was run: as §3

canola (Brassica rapa) = test: Test C pre-/postemergence plant response
How it was run: as §3

[13] = Postemergence, 8 g ai/ha, scale 0 to 100, 0 no effect, 100 complete control
[14] = Postemergence, 16 g ai/ha, scale 0 to 100, 0 no effect, 100 complete control
[15] = Postemergence, 31 g ai/ha, scale 0 to 100, 0 no effect, 100 complete control
[16] = Postemergence, 62 g ai/ha, scale 0 to 100, 0 no effect, 100 complete control
[17] = Preemergence, 8 g ai/ha, scale 0 to 100 (0 no effect, 100 complete control)
[18] = Preemergence, 16 g ai/ha, scale 0 to 100 (0 no effect, 100 complete control)
[19] = Preemergence, 31 g ai/ha, scale 0 to 100 (0 no effect, 100 complete control)
[20] = Preemergence, 62 g ai/ha, scale 0 to 100, 0 no effect, 100 complete control

CCc1cc(-c2ccc(C(F)(F)F)cc2)nn1-c1c(OC(=O)OC(C)C)cnn(C)c1=O [Compound 12]
100: Plant response rating, Crabgrass, Naked ([5]; 31 g ai/ha, Preemergence) | Plant response rating, Sandbur, S. ([8]; Postemergence, 31 g ai/ha)
80: Plant response rating, Itchgrass ([10]; 31 g ai/ha, Preemergence)
70: Plant response rating, Bermudagrass ([7]; Postemergence, 8 g ai/ha)
50: Plant response rating, Crabgrass, Naked ([5]; 4 g ai/ha, Postemergence) | Plant response rating, Itchgrass ([10]; Postemergence, 8 g ai/ha)
25: Plant response rating, Goosegrass ([6]; Preemergence, 4 g ai/ha)
0: Plant response rating, Bluegrass ([1]; 4 g ai/ha, Postemergence) | Plant response rating, Bluegrass ([1]; 8 g ai/ha, Preemergence) | Plant response rating, Bluegrass ([1]; 31 g ai/ha, Preemergence) | Plant response rating, Bluegrass ([1]; Postemergence, 8 g ai/ha) | Plant response rating, Bluegrass ([1]; Postemergence, 31 g ai/ha) | Plant response rating, Bluegrass ([1]; Preemergence, 4 g ai/ha) | Plant response rating, Mustard, Black ([2]; 4 g ai/ha, Postemergence) | Plant response rating, Mustard, Black ([2]; 8 g ai/ha, Preemergence) | Plant response rating, Mustard, Black ([2]; 31 g ai/ha, Preemergence) | Plant response rating, Mustard, Black ([2]; Postemergence, 8 g ai/ha) | Plant response rating, Mustard, Black ([2]; Postemergence, 31 g ai/ha) | Plant response rating, Mustard, Black ([2]; Preemergence, 4 g ai/ha) | Plant response rating, Groundsel ([3]; 4 g ai/ha, Postemergence) | Plant response rating, Groundsel ([3]; 31 g ai/ha, Preemergence) | Plant response rating, Groundsel ([3]; Postemergence, 8 g ai/ha) | Plant response rating, Groundsel ([3]; Postemergence, 31 g ai/ha) | Plant response rating, Groundsel ([3]; Preemergence, 4 g ai/ha) | Plant response rating, Nutsedge, Purple ([4]; 4 g ai/ha, Postemergence) | Plant response rating, Nutsedge, Purple ([4]; 31 g ai/ha, Preemergence) | Plant response rating, Nutsedge, Purple ([4]; Postemergence, 8 g ai/ha) | Plant response rating, Nutsedge, Purple ([4]; Postemergence, 31 g ai/ha) | Plant response rating, Sandbur, S. ([8]; Preemergence, 4 g ai/ha) | Plant response rating, Purslane ([9]; 4 g ai/ha, Postemergence) | Plant response rating, Purslane ([9]; 31 g ai/ha, Preemergence) | Plant response rating, Purslane ([9]; Postemergence, 8 g ai/ha) | Plant response rating, Purslane ([9]; Postemergence, 31 g ai/ha) | Plant response rating, Purslane ([9]; Preemergence, 4 g ai/ha) | Plant response rating, Itchgrass ([10]; 4 g ai/ha, Postemergence)
98: Plant response rating, Sandbur, S. ([8]; Postemergence, 8 g ai/ha)
95: Plant response rating, Crabgrass, Naked ([5]; 8 g ai/ha, Preemergence) | Plant response rating, Crabgrass, Naked ([5]; Postemergence, 31 g ai/ha) | Plant response rating, Bermudagrass ([7]; 31 g ai/ha, Preemergence) | Plant response rating, Bermudagrass ([7]; Postemergence, 31 g ai/ha) | Plant response rating, Sandbur, S. ([8]; 31 g ai/ha, Preemergence) | Plant response rating, Itchgrass ([10]; Postemergence, 31 g ai/ha)
35: Plant response rating, Bermudagrass ([7]; Preemergence, 4 g ai/ha)
10: Plant response rating, Goosegrass ([6]; 4 g ai/ha, Postemergence)
15: Plant response rating, Crabgrass, Naked ([5]; Preemergence, 4 g ai/ha) | Plant response rating, Bermudagrass ([7]; 4 g ai/ha, Postemergence)
20: Plant response rating, Itchgrass ([10]; Preemergence, 4 g ai/ha)
75: Plant response rating, Goosegrass ([6]; 31 g ai/ha, Preemergence) | Plant response rating, Bermudagrass ([7]; 8 g ai/ha, Preemergence)
65: Plant response rating, Goosegrass ([6]; 8 g ai/ha, Preemergence)
90: Plant response rating, Crabgrass, Naked ([5]; Postemergence, 8 g ai/ha) | Plant response rating, Goosegrass ([6]; Postemergence, 31 g ai/ha) | Plant response rating, Sandbur, S. ([8]; 4 g ai/ha, Postemergence)
30: Plant response rating, Goosegrass ([6]; Postemergence, 8 g ai/ha)

Cc1nn(C)c(=O)c(-n2nc(-c3ccc(Cl)cc3)cc2C)c1O [Compound 15]
35: Plant response rating, Wheat, Spring [11, 19]
70: Plant response rating, Wheat, Spring [11, 16] | Plant response rating, Wheat, Spring [11, 20]
15: Plant response rating, Wheat, Spring [11, 15]
10: Plant response rating, Wheat, Spring [11, 18]
0: Plant response rating, Wheat, Spring [11, 13] | Plant response rating, Wheat, Spring [11, 14] | Plant response rating, Wheat, Spring [11, 17] | Plant response rating, Pigweed [12, 13] | Plant response rating, Pigweed [12, 14] | Plant response rating, Pigweed [12, 15] | Plant response rating, Pigweed [12, 16] | Plant response rating, Pigweed [12, 17] | Plant response rating, Pigweed [12, 18] | Plant response rating, Pigweed [12, 19] | Plant response rating, Pigweed [12, 20] | Plant response rating, Canola (canola (Brassica rapa); [13]) | Plant response rating, Canola (canola (Brassica rapa); [14]) | Plant response rating, Canola (canola (Brassica rapa); [15]) | Plant response rating, Canola (canola (Brassica rapa); [16]) | Plant response rating, Canola (canola (Brassica rapa); [17]) | Plant response rating, Canola (canola (Brassica rapa); [18]) | Plant response rating, Canola (canola (Brassica rapa); [19]) | Plant response rating, Canola (canola (Brassica rapa); [20])

Cc1cc(-c2ccc(Cl)cc2)nn1-c1c(OC(=O)CC(C)C)cnn(C)c1=O [Compound 37]
90: Plant response rating, Wheat, Spring [11, 19]
75: Plant response rating, Wheat, Spring [11, 15]
50: Plant response rating, Wheat, Spring [11, 14]
15: Plant response rating, Wheat, Spring [11, 13]
0: Plant response rating, Wheat, Spring [11, 17] | Plant response rating, Wheat, Spring [11, 18] | Plant response rating, Pigweed [12, 13] | Plant response rating, Pigweed [12, 14] | Plant response rating, Pigweed [12, 15] | Plant response rating, Pigweed [12, 16] | Plant response rating, Pigweed [12, 17] | Plant response rating, Pigweed [12, 18] | Plant response rating, Pigweed [12, 19] | Plant response rating, Pigweed [12, 20] | Plant response rating, Canola (canola (Brassica rapa); [13]) | Plant response rating, Canola (canola (Brassica rapa); [14]) | Plant response rating, Canola (canola (Brassica rapa); [15]) | Plant response rating, Canola (canola (Brassica rapa); [16]) | Plant response rating, Canola (canola (Brassica rapa); [17]) | Plant response rating, Canola (canola (Brassica rapa); [19]) | Plant response rating, Canola (canola (Brassica rapa); [20])
98: Plant response rating, Wheat, Spring [11, 20]
95: Plant response rating, Wheat, Spring [11, 16]

Cc1cc(-c2ccc(C(F)(F)F)c(F)c2)nn1-c1c(O)c(C(F)(F)F)nn(C)c1=O [Compound 44]
100: Plant response rating, Wheat, Spring [11, 16]
0: Plant response rating, Wheat, Spring [11, 17] | Plant response rating, Pigweed [12, 13] | Plant response rating, Pigweed [12, 14] | Plant response rating, Pigweed [12, 15] | Plant response rating, Pigweed [12, 16] | Plant response rating, Pigweed [12, 17] | Plant response rating, Canola (canola (Brassica rapa); [13]) | Plant response rating, Canola (canola (Brassica rapa); [14]) | Plant response rating, Canola (canola (Brassica rapa); [15]) | Plant response rating, Canola (canola (Brassica rapa); [16]) | Plant response rating, Canola (canola (Brassica rapa); [17]) | Plant response rating, Canola (canola (Brassica rapa); [18]) | Plant response rating, Canola (canola (Brassica rapa); [19]) | Plant response rating, Canola (canola (Brassica rapa); [20])
95: Plant response rating, Wheat, Spring [11, 14] | Plant response rating, Wheat, Spring [11, 15]
70: Plant response rating, Wheat, Spring [11, 13] | Plant response rating, Wheat, Spring [11, 19]
20: Plant response rating, Wheat, Spring [11, 18] | Plant response rating, Pigweed [12, 18] | Plant response rating, Pigweed [12, 19] | Plant response rating, Pigweed [12, 20]
75: Plant response rating, Wheat, Spring [11, 20]

Cc1cc(-c2ccc(Cl)cc2)nn1-c1c(OS(=O)(=O)c2cccc3ccccc23)cnn(C)c1=O [Compound 47]
25: Plant response rating, Wheat, Spring [11, 19]
15: Plant response rating, Wheat, Spring [11, 18]
0: Plant response rating, Wheat, Spring [11, 17] | Plant response rating, Pigweed [12, 17] | Plant response rating, Pigweed [12, 18] | Plant response rating, Pigweed [12, 19] | Plant response rating, Pigweed [12, 20]
65: Plant response rating, Wheat, Spring [11, 20]

Cc1cc(-c2ccc(Cl)cc2)nn1-c1c(OC(=O)c2cccs2)cnn(C)c1=O [Compound 52]
90: Plant response rating, Wheat, Spring [11, 20]
65: Plant response rating, Wheat, Spring [11, 19]
0: Plant response rating, Wheat, Spring [11, 17] | Plant response rating, Wheat, Spring [11, 18] | Plant response rating, Pigweed [12, 17] | Plant response rating, Pigweed [12, 18] | Plant response rating, Pigweed [12, 19] | Plant response rating, Pigweed [12, 20]

Cc1cc(-c2ccc(Cl)cc2)nn1-c1c(OS(=O)(=O)c2ccc(Cl)s2)cnn(C)c1=O [Compound 55]
50: Plant response rating, Wheat, Spring [11, 19]
60: Plant response rating, Wheat, Spring [11, 20]
0: Plant response rating, Wheat, Spring [11, 17] | Plant response rating, Wheat, Spring [11, 18] | Plant response rating, Pigweed [12, 17] | Plant response rating, Pigweed [12, 18] | Plant response rating, Pigweed [12, 19]
